Assay results taken from paper PMC8401933 (Molecules, 2021).

Legend:
SNARK = molecular target: T1, SNARK (Homo sapiens, UniProt Q9H093); assay: KINOMEscan binding; details: read-out: Percent Control
T1 construct: purchased Eurofins DiscoverX KINOMEscan

PAK6 = molecular target: T2, PAK6 (Homo sapiens, UniProt Q9NQU5); assay: KINOMEscan binding; details: read-out: Percent Control
T2 construct: purchased Eurofins DiscoverX KINOMEscan

ABL1-nonphosphorylated = molecular target: T3, ABL1-nonphosphorylated (Homo sapiens, UniProt P00519); assay: KINOMEscan binding; details: read-out: Percent Control
T3 construct: purchased Eurofins DiscoverX KINOMEscan

ROCK1 = tested on: ROCK1; set-up: method as in PMID 18832915; details: cited from earlier work
MAP3K4 = molecular target: T4, MAP3K4 (Homo sapiens, UniProt Q9Y6R4); assay: KINOMEscan binding; details: read-out: Percent Control
T4 construct: purchased Eurofins DiscoverX KINOMEscan

LKB1 = molecular target: T5, LKB1 (Homo sapiens, UniProt Q15831); assay: KINOMEscan binding; details: read-out: Percent Control
T5 construct: purchased Eurofins DiscoverX KINOMEscan

SBK1 = molecular target: T6, SBK1 (Homo sapiens, UniProt Q52WX2); assay: KINOMEscan binding; details: read-out: Percent Control
T6 construct: purchased Eurofins DiscoverX KINOMEscan

ADCK4 = molecular target: T7, ADCK4 (Homo sapiens, UniProt Q96D53); assay: KINOMEscan binding; details: read-out: Percent Control
T7 construct: purchased Eurofins DiscoverX KINOMEscan

PRKG2 = molecular target: T8, PRKG2 (Homo sapiens, UniProt Q13237); assay: KINOMEscan binding; details: read-out: Percent Control
T8 construct: purchased Eurofins DiscoverX KINOMEscan

[1] = molecular target: T9, RSK4(Kin.Dom.2-C-terminal) (Homo sapiens, UniProt Q9UK32); assay: KINOMEscan binding; details: read-out: Percent Control
T9 construct: RSK4(Kin.Dom.2-C-terminal); purchased Eurofins DiscoverX KINOMEscan

STK39 = molecular target: T10, STK39 (Homo sapiens, UniProt Q9UEW8); assay: KINOMEscan binding; details: read-out: Percent Control
T10 construct: purchased Eurofins DiscoverX KINOMEscan

CDK11 = molecular target: T11, CDK11 (Homo sapiens, UniProt Q9BWU1); assay: KINOMEscan binding; details: read-out: Percent Control
T11 construct: purchased Eurofins DiscoverX KINOMEscan

TAK1 = molecular target: T12, TAK1 (Homo sapiens, UniProt O43318); assay: KINOMEscan binding; details: read-out: Percent Control
T12 construct: purchased Eurofins DiscoverX KINOMEscan

ERK5 = molecular target: T13, ERK5 (Homo sapiens, UniProt Q13164); assay: KINOMEscan binding; details: read-out: Percent Control
T13 construct: purchased Eurofins DiscoverX KINOMEscan

RAF1 = molecular target: T14, RAF1 (Homo sapiens, UniProt P04049); assay: KINOMEscan binding; details: read-out: Percent Control
T14 construct: purchased Eurofins DiscoverX KINOMEscan

SIK2 = molecular target: T15, SIK2 (Homo sapiens, UniProt Q9H0K1); assay: KINOMEscan binding; details: read-out: Percent Control
T15 construct: purchased Eurofins DiscoverX KINOMEscan

DMPK2 = molecular target: T16, DMPK2 (Homo sapiens, UniProt Q6DT37); assay: KINOMEscan binding; details: read-out: Percent Control
T16 construct: purchased Eurofins DiscoverX KINOMEscan

DRAK1 = molecular target: T17, DRAK1 (Homo sapiens, UniProt Q9UEE5); assay: KINOMEscan binding; details: read-out: Percent Control
T17 construct: purchased Eurofins DiscoverX KINOMEscan

CASK = molecular target: T18, CASK (Homo sapiens, UniProt O14936); assay: KINOMEscan binding; details: read-out: Percent Control
T18 construct: purchased Eurofins DiscoverX KINOMEscan

PDGFRA = molecular target: T19, PDGFRA (Homo sapiens, UniProt P16234); assay: KINOMEscan binding; details: read-out: Percent Control
T19 construct: purchased Eurofins DiscoverX KINOMEscan

HASPIN = molecular target: T20, HASPIN (Homo sapiens, UniProt Q8TF76); assay: KINOMEscan binding; details: read-out: Percent Control
T20 construct: purchased Eurofins DiscoverX KINOMEscan

DYRK2 = molecular target: T21, DYRK2 (Homo sapiens, UniProt Q92630); assay: KINOMEscan binding; details: read-out: Percent Control
T21 construct: purchased Eurofins DiscoverX KINOMEscan

MAP3K3 = molecular target: T22, MAP3K3 (Homo sapiens, UniProt Q99759); assay: KINOMEscan binding; details: read-out: Percent Control
T22 construct: purchased Eurofins DiscoverX KINOMEscan

PRKX = molecular target: T23, PRKX (Homo sapiens, UniProt P51817); assay: KINOMEscan binding; details: read-out: Percent Control
T23 construct: purchased Eurofins DiscoverX KINOMEscan

PRKG1 = molecular target: T24, PRKG1 (Homo sapiens, UniProt Q13976); assay: KINOMEscan binding; details: read-out: Percent Control
T24 construct: purchased Eurofins DiscoverX KINOMEscan

CAMK2D = molecular target: T25, CAMK2D (Homo sapiens, UniProt Q13557); assay: KINOMEscan binding; details: read-out: Percent Control
T25 construct: purchased Eurofins DiscoverX KINOMEscan

FLT3(D835Y) = molecular target: T26, FLT3(D835Y) (Homo sapiens, UniProt P36888, D835Y); assay: KINOMEscan binding; details: read-out: Percent Control
T26 construct: purchased Eurofins DiscoverX KINOMEscan

ALK = molecular target: T27, ALK (Homo sapiens, UniProt Q9UM73); assay: KINOMEscan binding; details: read-out: Percent Control
T27 construct: purchased Eurofins DiscoverX KINOMEscan

PRKCD = molecular target: T28, PRKCD (Homo sapiens, UniProt Q05655); assay: KINOMEscan binding; details: read-out: Percent Control
T28 construct: purchased Eurofins DiscoverX KINOMEscan

CDKL3 = molecular target: T29, CDKL3 (Homo sapiens, UniProt Q8IVW4); assay: KINOMEscan binding; details: read-out: Percent Control
T29 construct: purchased Eurofins DiscoverX KINOMEscan

CDKL2 = molecular target: T30, CDKL2 (Homo sapiens, UniProt Q92772); assay: KINOMEscan binding; details: read-out: Percent Control
T30 construct: purchased Eurofins DiscoverX KINOMEscan

PRKD3 = molecular target: T31, PRKD3 (Homo sapiens, UniProt O94806); assay: KINOMEscan binding; details: read-out: Percent Control
T31 construct: purchased Eurofins DiscoverX KINOMEscan

PIK3CD = molecular target: T32, PIK3CD (Homo sapiens, UniProt O00329); assay: KINOMEscan binding; details: read-out: Percent Control
T32 construct: purchased Eurofins DiscoverX KINOMEscan

MEK4 = molecular target: T33, MEK4 (Homo sapiens, UniProt P45985); assay: KINOMEscan binding; details: read-out: Percent Control
T33 construct: purchased Eurofins DiscoverX KINOMEscan

MLK2 = molecular target: T34, MLK2 (Homo sapiens, UniProt Q02779); assay: KINOMEscan binding; details: read-out: Percent Control
T34 construct: purchased Eurofins DiscoverX KINOMEscan

DCAMKL2 = molecular target: T35, DCAMKL2 (Homo sapiens, UniProt Q8N568); assay: KINOMEscan binding; details: read-out: Percent Control
T35 construct: purchased Eurofins DiscoverX KINOMEscan

PFTK1 = molecular target: T36, PFTK1 (Homo sapiens, UniProt O94921); assay: KINOMEscan binding; details: read-out: Percent Control
T36 construct: purchased Eurofins DiscoverX KINOMEscan

ROCK2 = ROCK2 (Homo sapiens, UniProt O75116); assay: KINOMEscan binding; set-up: purchased Eurofins DiscoverX (KINOMEscan service); details: read-out: Percent Control
NDR1 = molecular target: T37, NDR1 (Homo sapiens, UniProt Q15208); assay: KINOMEscan binding; details: read-out: Percent Control
T37 construct: purchased Eurofins DiscoverX KINOMEscan

PRKR = molecular target: T38, PRKR (Homo sapiens, UniProt P19525); assay: KINOMEscan binding; details: read-out: Percent Control
T38 construct: purchased Eurofins DiscoverX KINOMEscan

TGFBR2 = molecular target: T39, TGFBR2 (Homo sapiens, UniProt P37173); assay: KINOMEscan binding; details: read-out: Percent Control
T39 construct: purchased Eurofins DiscoverX KINOMEscan

MEK5 = molecular target: T40, MEK5 (Homo sapiens, UniProt Q13163); assay: KINOMEscan binding; details: read-out: Percent Control
T40 construct: purchased Eurofins DiscoverX KINOMEscan

YANK2 = molecular target: T41, YANK2 (Homo sapiens, UniProt Q9NY57); assay: KINOMEscan binding; details: read-out: Percent Control
T41 construct: purchased Eurofins DiscoverX KINOMEscan

EPHA5 = molecular target: T42, EPHA5 (Homo sapiens, UniProt P54756); assay: KINOMEscan binding; details: read-out: Percent Control
T42 construct: purchased Eurofins DiscoverX KINOMEscan

T13 sequence (Q13164 whole entry): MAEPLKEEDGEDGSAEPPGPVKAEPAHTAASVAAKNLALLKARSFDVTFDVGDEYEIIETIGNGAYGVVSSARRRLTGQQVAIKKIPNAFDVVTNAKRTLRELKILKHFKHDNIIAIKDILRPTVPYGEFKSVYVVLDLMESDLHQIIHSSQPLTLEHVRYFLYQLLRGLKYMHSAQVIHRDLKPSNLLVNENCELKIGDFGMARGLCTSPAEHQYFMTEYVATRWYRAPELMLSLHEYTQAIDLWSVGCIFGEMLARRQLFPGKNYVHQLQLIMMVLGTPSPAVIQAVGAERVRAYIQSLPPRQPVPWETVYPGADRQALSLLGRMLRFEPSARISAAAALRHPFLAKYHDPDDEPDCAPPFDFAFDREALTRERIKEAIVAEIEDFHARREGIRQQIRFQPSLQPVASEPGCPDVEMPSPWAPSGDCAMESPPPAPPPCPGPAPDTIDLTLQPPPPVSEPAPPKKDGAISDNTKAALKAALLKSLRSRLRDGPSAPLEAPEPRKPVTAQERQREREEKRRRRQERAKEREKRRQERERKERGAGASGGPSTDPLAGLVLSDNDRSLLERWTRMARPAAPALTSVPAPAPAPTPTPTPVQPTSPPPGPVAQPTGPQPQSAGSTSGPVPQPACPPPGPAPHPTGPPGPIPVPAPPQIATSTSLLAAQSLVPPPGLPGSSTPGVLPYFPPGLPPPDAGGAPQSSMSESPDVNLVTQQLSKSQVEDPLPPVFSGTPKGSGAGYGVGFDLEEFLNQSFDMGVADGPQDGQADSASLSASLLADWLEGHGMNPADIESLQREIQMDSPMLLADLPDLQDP
T15 sequence (Q9H0K1 whole entry): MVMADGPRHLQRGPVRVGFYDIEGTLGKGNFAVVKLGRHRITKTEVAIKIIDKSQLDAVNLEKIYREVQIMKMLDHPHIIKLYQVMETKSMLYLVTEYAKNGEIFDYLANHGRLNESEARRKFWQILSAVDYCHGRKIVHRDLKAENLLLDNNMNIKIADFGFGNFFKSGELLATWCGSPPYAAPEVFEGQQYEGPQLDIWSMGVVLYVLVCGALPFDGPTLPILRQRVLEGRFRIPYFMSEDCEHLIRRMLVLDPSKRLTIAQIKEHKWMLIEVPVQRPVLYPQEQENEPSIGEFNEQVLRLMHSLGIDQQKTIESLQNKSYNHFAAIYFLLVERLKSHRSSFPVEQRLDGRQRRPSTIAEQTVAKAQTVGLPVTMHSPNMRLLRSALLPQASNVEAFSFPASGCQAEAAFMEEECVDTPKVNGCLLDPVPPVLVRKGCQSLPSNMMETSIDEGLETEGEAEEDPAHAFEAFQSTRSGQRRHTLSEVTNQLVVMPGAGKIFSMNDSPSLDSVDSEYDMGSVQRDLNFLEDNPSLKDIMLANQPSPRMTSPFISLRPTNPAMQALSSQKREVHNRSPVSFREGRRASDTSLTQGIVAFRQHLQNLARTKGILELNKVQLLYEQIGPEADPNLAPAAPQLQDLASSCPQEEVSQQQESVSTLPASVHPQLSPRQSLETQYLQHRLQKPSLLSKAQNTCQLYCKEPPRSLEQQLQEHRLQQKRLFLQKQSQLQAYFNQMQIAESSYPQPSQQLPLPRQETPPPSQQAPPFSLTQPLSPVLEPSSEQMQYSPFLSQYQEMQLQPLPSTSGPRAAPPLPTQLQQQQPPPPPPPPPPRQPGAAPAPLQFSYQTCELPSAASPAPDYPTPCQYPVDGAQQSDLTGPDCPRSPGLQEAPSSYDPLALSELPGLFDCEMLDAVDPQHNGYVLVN
T5 sequence (Q15831 whole entry): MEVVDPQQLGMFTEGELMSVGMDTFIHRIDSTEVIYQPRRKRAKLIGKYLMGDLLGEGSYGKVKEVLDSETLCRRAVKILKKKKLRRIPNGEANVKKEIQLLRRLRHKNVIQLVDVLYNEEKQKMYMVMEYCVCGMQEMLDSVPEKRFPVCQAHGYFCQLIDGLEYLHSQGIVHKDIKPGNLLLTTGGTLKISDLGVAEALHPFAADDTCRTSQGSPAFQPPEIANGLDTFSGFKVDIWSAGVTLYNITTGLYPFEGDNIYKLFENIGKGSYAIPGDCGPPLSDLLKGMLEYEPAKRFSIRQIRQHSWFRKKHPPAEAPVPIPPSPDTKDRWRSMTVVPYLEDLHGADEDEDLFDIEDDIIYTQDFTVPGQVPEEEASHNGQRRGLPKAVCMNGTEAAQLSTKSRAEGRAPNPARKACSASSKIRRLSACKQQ
T33 sequence (P45985 whole entry): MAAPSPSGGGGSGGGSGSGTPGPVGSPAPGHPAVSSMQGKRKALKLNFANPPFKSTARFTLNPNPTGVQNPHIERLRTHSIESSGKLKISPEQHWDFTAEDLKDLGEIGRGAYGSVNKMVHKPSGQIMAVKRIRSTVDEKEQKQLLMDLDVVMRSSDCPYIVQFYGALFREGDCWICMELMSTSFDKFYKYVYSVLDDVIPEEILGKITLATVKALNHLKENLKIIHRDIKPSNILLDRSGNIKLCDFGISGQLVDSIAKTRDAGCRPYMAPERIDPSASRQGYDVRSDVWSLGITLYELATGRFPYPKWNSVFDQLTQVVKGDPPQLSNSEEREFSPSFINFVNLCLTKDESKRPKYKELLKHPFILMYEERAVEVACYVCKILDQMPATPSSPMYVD
T40 sequence (Q13163 whole entry): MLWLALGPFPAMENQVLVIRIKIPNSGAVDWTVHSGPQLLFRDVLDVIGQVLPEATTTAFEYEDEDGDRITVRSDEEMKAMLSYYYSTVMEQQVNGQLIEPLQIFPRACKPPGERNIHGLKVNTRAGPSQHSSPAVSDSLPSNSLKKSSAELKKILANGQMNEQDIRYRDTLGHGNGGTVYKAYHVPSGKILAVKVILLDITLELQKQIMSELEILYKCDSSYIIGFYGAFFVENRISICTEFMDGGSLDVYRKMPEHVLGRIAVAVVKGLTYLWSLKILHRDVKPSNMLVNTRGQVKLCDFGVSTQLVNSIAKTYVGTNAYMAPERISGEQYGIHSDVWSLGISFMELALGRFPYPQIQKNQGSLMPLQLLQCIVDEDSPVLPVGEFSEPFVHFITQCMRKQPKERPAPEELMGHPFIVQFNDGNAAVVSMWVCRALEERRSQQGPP
T32 sequence (O00329 whole entry): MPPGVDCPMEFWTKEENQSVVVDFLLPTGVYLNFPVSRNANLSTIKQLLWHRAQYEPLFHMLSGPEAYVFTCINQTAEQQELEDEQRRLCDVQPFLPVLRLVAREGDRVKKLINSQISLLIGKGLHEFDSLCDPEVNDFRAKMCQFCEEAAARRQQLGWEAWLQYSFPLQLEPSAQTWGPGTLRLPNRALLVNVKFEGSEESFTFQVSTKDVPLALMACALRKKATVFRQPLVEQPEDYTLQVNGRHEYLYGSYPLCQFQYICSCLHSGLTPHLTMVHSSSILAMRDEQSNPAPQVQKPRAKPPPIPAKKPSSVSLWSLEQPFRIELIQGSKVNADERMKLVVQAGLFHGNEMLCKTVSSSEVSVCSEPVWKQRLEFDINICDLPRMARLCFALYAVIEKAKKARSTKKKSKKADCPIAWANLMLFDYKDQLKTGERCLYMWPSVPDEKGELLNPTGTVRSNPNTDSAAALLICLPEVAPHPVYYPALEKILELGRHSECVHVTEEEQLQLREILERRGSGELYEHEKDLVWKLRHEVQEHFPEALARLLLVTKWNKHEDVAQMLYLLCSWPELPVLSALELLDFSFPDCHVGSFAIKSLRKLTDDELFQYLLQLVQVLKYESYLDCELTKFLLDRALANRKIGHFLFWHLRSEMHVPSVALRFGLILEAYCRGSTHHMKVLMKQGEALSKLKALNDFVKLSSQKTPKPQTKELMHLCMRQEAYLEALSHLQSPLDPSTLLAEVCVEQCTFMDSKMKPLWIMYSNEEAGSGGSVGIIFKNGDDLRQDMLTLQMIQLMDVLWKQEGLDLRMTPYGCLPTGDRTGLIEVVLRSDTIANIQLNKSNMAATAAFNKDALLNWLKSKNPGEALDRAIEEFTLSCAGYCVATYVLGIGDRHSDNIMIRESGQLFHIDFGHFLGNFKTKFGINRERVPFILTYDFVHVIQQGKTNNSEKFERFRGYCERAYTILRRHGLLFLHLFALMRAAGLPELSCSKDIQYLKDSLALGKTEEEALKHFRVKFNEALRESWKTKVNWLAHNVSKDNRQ
T23 sequence (P51817 whole entry): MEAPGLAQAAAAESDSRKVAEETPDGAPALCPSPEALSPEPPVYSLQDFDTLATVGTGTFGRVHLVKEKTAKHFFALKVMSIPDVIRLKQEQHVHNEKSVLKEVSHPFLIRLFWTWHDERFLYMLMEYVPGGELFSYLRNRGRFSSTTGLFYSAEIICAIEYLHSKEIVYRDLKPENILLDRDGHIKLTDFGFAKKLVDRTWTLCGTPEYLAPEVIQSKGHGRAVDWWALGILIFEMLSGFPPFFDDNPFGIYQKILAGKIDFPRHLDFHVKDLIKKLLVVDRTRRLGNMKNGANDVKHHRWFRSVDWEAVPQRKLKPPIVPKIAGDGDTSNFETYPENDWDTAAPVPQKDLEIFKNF
T6 sequence (Q52WX2 whole entry): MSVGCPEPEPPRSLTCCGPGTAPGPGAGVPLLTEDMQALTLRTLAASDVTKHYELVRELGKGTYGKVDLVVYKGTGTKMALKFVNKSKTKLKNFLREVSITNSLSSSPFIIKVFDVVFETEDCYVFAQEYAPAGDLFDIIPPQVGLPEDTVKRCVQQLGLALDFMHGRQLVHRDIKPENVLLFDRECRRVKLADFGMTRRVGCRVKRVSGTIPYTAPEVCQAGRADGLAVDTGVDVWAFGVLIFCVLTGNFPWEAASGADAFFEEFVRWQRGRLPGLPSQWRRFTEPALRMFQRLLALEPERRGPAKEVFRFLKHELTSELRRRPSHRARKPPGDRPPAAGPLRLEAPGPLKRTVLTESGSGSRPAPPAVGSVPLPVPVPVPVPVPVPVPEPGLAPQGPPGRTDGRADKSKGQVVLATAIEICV

CC(C)NC(=O)COc1cccc(-c2nc(Nc3ccc4[nH]ncc4c3)c3ccccc3n2)c1 [KD025, 2-(3-(4-((1H-indazol-5-yl)amino)quinazolin-2-yl)phenoxy)-N-isopropylacetamide]
remaining binding at 10 µM (SNARK): 71% | remaining binding at 10 µM (PAK6): 100% | remaining binding at 10 µM (ABL1-nonphosphorylated): 78% | IC50 (ROCK1): 24 µM | remaining binding at 10 µM (MAP3K4): 83% | remaining binding at 10 µM (LKB1): 63% | remaining binding at 10 µM (SBK1): 100% | remaining binding at 10 µM (ADCK4): 100% | remaining binding at 10 µM (PRKG2): 88% | remaining binding at 10 µM [1]: 88% | remaining binding at 10 µM (STK39): 100% | remaining binding at 10 µM (CDK11): 99% | remaining binding at 10 µM (TAK1): 68% | remaining binding at 10 µM (ERK5): 100% | remaining binding at 10 µM (RAF1): 62% | remaining binding at 10 µM (SIK2): 74% | remaining binding at 10 µM (DMPK2): 3.9% | remaining binding at 10 µM (DRAK1): 39% | remaining binding at 10 µM (CASK): 70% | remaining binding at 10 µM (PDGFRA): 80% | remaining binding at 10 µM (HASPIN): 77% | remaining binding at 10 µM (DYRK2): 86% | remaining binding at 10 µM (MAP3K3): 80% | remaining binding at 10 µM (PRKX): 81% | remaining binding at 10 µM (PRKG1): 100% | remaining binding at 10 µM (CAMK2D): 71% | remaining binding at 10 µM (FLT3(D835Y)): 46% | remaining binding at 10 µM (ALK): 54% | remaining binding at 10 µM (PRKCD): 70% | remaining binding at 10 µM (CDKL3): 91% | remaining binding at 10 µM (CDKL2): 100% | remaining binding at 10 µM (PRKD3): 100% | remaining binding at 10 µM (PIK3CD): 41% | remaining binding at 10 µM (MEK4): 100% | remaining binding at 10 µM (MLK2): 100% | remaining binding at 10 µM (DCAMKL2): 79% | remaining binding at 10 µM (PFTK1): 77% | remaining binding at 10 µM (ROCK2): 0.05% | remaining binding at 10 µM (NDR1): 73% | remaining binding at 10 µM (PRKR): 54% | remaining binding at 10 µM (TGFBR2): 100% | remaining binding at 10 µM (MEK5): 63% | remaining binding at 10 µM (YANK2): 88% | remaining binding at 10 µM (EPHA5): 92%
